Holding throughout (format): physicochemical
Data set [1] in a line: Average particle diameter, microscopic method (Heywood circle-corresponding diameter). The conditions noted are these: 10 typical crystals on photograph, hydrochloride. An excerpt: The average particle diameter is shown by a diameter of a circle having the same area as an injected area of the particle, a so-called Heywood diameter (circle-corresponding diameter) according to a microscopic method (injected image). A small amount of the crystals was put on a slide glass, and 1 to 2 drops of a hydrophilic surfactant (sesquioleic acid sorbitan) were fallen thereon to disperse them. It was photographed by means of a polarization microscope (photographing lens: 3.3 magnifications, objective lens: 20 magnifications) equipped with a photographing device. Optional 10 pieces of the typical crystals were selected on the photograph to measure a long diameter and a short diameter thereof An (projected) area of the particle was shown by long diameter×short diameter, and the particle diameter was shown by a diameter of a circle having the same area as that obtained above.

Data set [2] is described as follows: Solubility test (dissolving time in water). The conditions noted are these: 50 mg sample in 5 ml water, 25° C., about 600 rounds/minute stirring, time until completely dissolved; hydrochloride. The method, then:
A beaker of 20 ml (minor diameter: 30 mm) was charged with 5 ml of water and then 50 mg of a DOX.HCl crystal sample, and the sample was stirred at 25° C. and about 600 rounds/minute by means of a magnetic stirrer (diameter 6 mm×length 10 mm). Time consumed until the sample was completely dissolved was measured wile observing the dissolving state every 30 seconds with naked eyes.
The solubility test described above was carried out for a DXR.USP standard product (Lot J) (average particle diameter: 28 μm) as comparison and Examples 2, 46,51, 55, 56, 57 and 58, and the results thereof are shown in Table III.

Data set [3] is described as follows: Hygroscopicity, cup method (weight change). The conditions noted are these: weight-increasing rate, 25° C., 50 to 60% RH, 15 minutes; crystals dried at 40° C. under vacuum; hydrochloride. On the procedure: Determined by the following cup method. To be specific, about 15 to 20 mg of the sample was put in a cylindrical cup having a diameter of 6 mm and a depth of 6 mm and left standing at a fixed temperature (25° C.) and relative humidity (50 to 60% RH) for 15 minutes to measure a weight change, whereby the hygroscopicity was evaluated.
In the following respective examples, a weight-increasing rate of 0.40% or more is shown by an evaluation criterion that the hygroscopicity is large (−); a weight-increasing rate of 0.20% or more and less than 0.40% is shown by an evaluation criterion that the hygroscopicity is ;intermediate (±); and a weight-increasing rate of less than 0.20% is shown by an evaluation criterion that the hygroscopicity is small: (+).

Structures can show the parent of a compound that is named as a salt. Marks after values point to notes of the source that are not given here.

In the case of `COc1cccc2c1C(=O)c1c(O)c3c(c(O)c1C2=O)C[C@@](O)(C(=O)CO)C[C@@H]3O[C@H]1C[C@H](N)[C@H](O)[C@H](C)O1` [Example 51, doxorubicin hydrochloride], the Average particle diameter in data set [1] amounted to 73 μm. The same compound came in with a Dissolving time in data set [2] of 1.5 to 2 min. Also, the Hygroscopicity result in data set [3] is reported as “+ (a weight-increasing rate of less than 0.20% is shown by an evaluation criterion that the hygroscopicity is small: (+))”.

Compound `COc1cccc2c1C(=O)c1c(O)c3c(c(O)c1C2=O)C[C@@](O)(C(=O)CO)C[C@@H]3O[C@H]1C[C@H](N)[C@H](O)[C@H](C)O1` [Example 2, doxorubicin hydrochloride] yielded an Average particle diameter in data set [1] below 4 μm. Moreover, the Dissolving time in data set [2] is 4 to 4.5 min. Also, in data set [3], the Hygroscopicity result is listed as “− (a weight-increasing rate of 0.40% or more is shown by an evaluation criterion that the hygroscopicity is large (−))”.

With `COc1cccc2c1C(=O)c1c(O)c3c(c(O)c1C2=O)C[C@@](O)(C(=O)CO)C[C@@H]3O[C@H]1C[C@H](N)[C@H](O)[C@H](C)O1` [Example 55, doxorubicin hydrochloride], the Average particle diameter in data set [1] was 24 μm. This compound also displayed a Dissolving time in data set [2] of 1.5 to 2 min. Also, in data set [3], the Hygroscopicity entry was “+ (a weight-increasing rate of less than 0.20% is shown by an evaluation criterion that the hygroscopicity is small: (+))”.

As for `COc1cccc2c1C(=O)c1c(O)c3c(c(O)c1C2=O)C[C@@](O)(C(=O)CO)C[C@@H]3O[C@H]1C[C@H](N)[C@H](O)[C@H](C)O1` [Example 56, doxorubicin hydrochloride], in data set [1], the Average particle diameter is recorded as 37 μm. The compound also returned a Dissolving time in data set [2] of 1.5 to 2 min. For the same compound, the Hygroscopicity entry in data set [3] is given as “+ (a weight-increasing rate of less than 0.20% is shown by an evaluation criterion that the hygroscopicity is small: (+))”.

Take `COc1cccc2c1C(=O)c1c(O)c3c(c(O)c1C2=O)C[C@@](O)(C(=O)CO)C[C@@H]3O[C@H]1C[C@H](N)[C@H](O)[C@H](C)O1` [Example 57, doxorubicin hydrochloride]: the Average particle diameter in data set [1] is 35 μm. In addition, in data set [2], the Dissolving time was in the range of 1.5 to 2 min. In addition, in data set [3], the Hygroscopicity entry was “± (a weight-increasing rate of 0.20% or more and less than 0.40% is shown by an evaluation criterion that the hygroscopicity is ;intermediate (±))”.

Turning to `COc1cccc2c1C(=O)c1c(O)c3c(c(O)c1C2=O)C[C@@](O)(C(=O)CO)C[C@@H]3O[C@H]1C[C@H](N)[C@H](O)[C@H](C)O1` [Example 46, doxorubicin hydrochloride], the Average particle diameter in data set [1] came out at 86 μm. The same compound registered a Dissolving time in data set [2] of 1.5 to 2 min. The Hygroscopicity result in data set [3] was “+ (a weight-increasing rate of less than 0.20% is shown by an evaluation criterion that the hygroscopicity is small: (+))”.

In data set [1], `COc1cccc2c1C(=O)c1c(O)c3c(c(O)c1C2=O)C[C@@](O)(C(=O)CO)C[C@@H]3O[C@H]1C[C@H](N)[C@H](O)[C@H](C)O1` [Example 58, doxorubicin hydrochloride] returned an Average particle diameter below 4 μm. Besides, in data set [2], the Dissolving time is 14.5 to 15 min. Also, the Hygroscopicity entry in data set [3] was “− (a weight-increasing rate of 0.40% or more is shown by an evaluation criterion that the hygroscopicity is large (−))”.

With `COc1cccc2c1C(=O)c1c(O)c3c(c(O)c1C2=O)C[C@@](O)(C(=O)CO)C[C@@H]3O[C@H]1C[C@H](N)[C@H](O)[C@H](C)O1` [DXR.USP (comparison), doxorubicin hydrochloride], the Average particle diameter in data set [1] (listed as DXR.USP standard product (Lot J)) turned out to be 28 μm. The Dissolving time in data set [2] is 3-3.5* minute.
